Measurements: patent US6974794B1, “Hemoglobin-antioxidant conjugates” (Hemosol LP, priority 1999, dated 2005)

Key:
erythrocytes = assay: Hemolysis of erythrocytes mediated by peroxyl radicals (AAPH); protection of RBCs against lysis; assay type: cell-based; conditions: for AUC, % of control: relative to the corresponding control without Trolox, CO-ligated
Method: Blood was collected into heparinized tubes and erythrocytes were separated by centrifugation and washed 3 times with 10 volumes of PBS, pH 7.4. During the last washing, erythrocytes were centrifuged at 1000×g for 10 minutes to obtain a consistently packed cell preparation. The assay for hemolysis mediated by peroxyl radicals was conducted by a modified method of Miki et al.,(M. Miki, H. Tamai, M. Mino, Y. Yamamoto and E. Niki., Arch. Biochem. Biophys. 258:373-380 (1987)). Equal volumes of a 30% suspension of fresh erythrocytes in PBS pH 7.4, test sample, and 300 mM 2,2;-azo-bis(2-amidinopropane dihydrochloride) (AAPH, a radical generator) were combined in order. Mixtures were prepared under CO gas and test hemoglobin concentration in the RBC assay suspension was 12-13 mg/ml. Mixtures were held at 37° C., and aliquots were diluted 20-fold in PBS and centrifuged at 1000×g for 10 minutes. As a measure of Hb released due to RBC lysis, the absorbances of supernatants were measured at 540 nm after conversion of all Hb to CN-metHb according to the method of Tentori (Meth. Enzymology 75:707 (1981)). Supernatant Hb levels were corrected for Hb added in the test samples.
The results for two products are presented graphically in FIG. 1, a plot of relative RBC lysis against time for the various products. Products analyzed were prepared as described for reaction #6 (Hb-Trolox B) and reaction #7 (Hb-Trolox A) in Table 1 of Example 1. […] Relative protection was also determined by comparison of areas under the curves (AUC) obtained by plotting RBC lysate absorbance versus time. AUC is determined by the time of onset, rate, and overall extend of RBC lysis. Lower AUC values indicate greater protection of RBCs against lysis.
Using the method described in Example 2, the anti-oxidant activities of the two conjugates were measured. Samples were CO-ligated and concentration of the conjugates and controls in the RBC assay suspension was 12 mg/mL.
Using the method described in Example 1, the anti-oxidant activity of the polyOR-Hb-TX was measured. Products tested included oxygen and CO-ligated polyOR-Hb (no treatment with TX or EDC), CO-ligated product reserved prior to oxygenation as described above, and oxygenated product. All products were present in the RBC lysis assay suspension at 11.7 mg/mL.
Using the method described in Example 1, the antioxidant activities of the polyOR-Hb-TX products prepared under deoxy conditions (Example 8) and CO conditions (Example 6) were measured. Samples were CO-ligated and concentration of the conjugates and controls in the RBC assay suspension was 12 mg/mL. An equal concentration of polyOR-Hb, as well as two concentrations of Trolox alone representing 1× and 0.5× its solubility limit in the test solution, were evaluated.

[1] = P50 measured with a Hemox-Analyzer; conditions: 37° C.
Method: Trolox was conjugated to polyOR-Hb under deoxy conditions to prepare a product with a high P50, more suitable for use as an HBOC. PolyOR-Hb and MES buffer were deoxygenated by standard means. 0.78 g Trolox was reacted with 0.60 g EDC in 4 mL of acetonitrile for 10-20 minutes at room temperature. This solution was added to 2.04 g polyOR-Hb in 200 mL 120 mM MES pH 7.0. Two identical additions were made after 4 and 21 hours. At 27 hours following the first addition, the reaction mixture was charged with CO gas, filtered, concentrated and dialyzed extensively against PBS.

conscious rat = assay: Hemodynamic effect following 10% topload infusion in conscious rat; assay type: in vivo; conditions: for Pre-infusion HR / baseline MAP prior to infusion: conscious Sprague-Dawley rat, before infusion; for baseline MAP prior to infusion: four animals per group; for HR after infusion / MAP following infusion: 10% topload infusion of 7.7 g/dL solution in lactated Ringer's
Method: Male Sprague-Dawley rats (250-350 g) were anesthetized with isoflurane on the day of the experiment. The right femoral artery and vein were cannulated. After 1.5 hour recovery from surgery, conscious animals residing in a metabolic cages were infused with either of two solutions: oxygenated polyOR-TX prepared in Example 6 or polyOR-Hb (no TX-EDC treatment; both solutions were 7.7 g/dL in lactated Ringer's solution). Infusion volume was equal to 10% of the animal's estimated blood volume. Mean arterial blood pressure (MAP) and heart rate (HR) were recorded 30 minutes prior to infusion to establish baseline values, during infusion and for 2 hours following infusion (FIGS. 3 and 4). Four animals were tested in each of the two groups. The baseline MAP prior to infusion was 101±4 mm Hg (polyOR-Hb) and 110±3 mm Hg (polyOR-Hb-TX). […] Pre-infusion HR were 407±17 and 394±17 beats per minute (bpm) in the polyOR-Hb and polyOR-Hb-TX groups, respectively.

[2] = Table 8, 11.7 mg/mL in RBC lysis assay suspension
[3] = Table 7, CO-ligated samples, 12 mg/mL in RBC assay suspension
[4] = Table 4, hemoglobin 0.20 mM (12-13 mg/ml) in RBC assay suspension, under CO, 37° C., bound Trolox 0.32 mM (A), 0.45 mM (B), lower AUC = greater protection

## PolyOR-Hb-TX (CO form): CO-ligated product of Example 6 reserved prior to oxygenation
erythrocytes; [2]
  AUC relative to AAPH control (%): 6%

## 1× TX-EDC (Reaction A): polyOR-Hb conjugated with Trolox by a single addition of Trolox/EDC
erythrocytes; [3]
  AUC relative to AAPH control (%): 27%
erythrocytes; 12 mg/mL
  AUC, % of control: 33%

## PolyOR-Hb-TX (from Example 6): Trolox conjugate of o-raffinose polymerized hemoglobin, large scale, prepared under CO conditions
erythrocytes; Table 9, CO form, 12 mg/mL
  AUC relative to AAPH control (%): 0%
[1]
  P50: 16 mm Hg
Conscious rat
  Pre-infusion HR: 394±17 bpm
  baseline MAP prior to infusion: 110±3 mm Hg
Conscious rat; conscious rat
  HR after infusion: 316±10 bpm
  MAP following infusion: 151±1 mm Hg
Conscious rat; conscious rat, 10% topload infusion, result in words
  Hemodynamic properties compared with polyOR-Hb: did not alter the hemodynamic properties

## 3× Control: control product: polyOR-Hb reacted with EDC alone, no Trolox added, three additions
erythrocytes; [3]
  AUC relative to AAPH control (%): 69%

## PolyOR-Hb-TX (Oxy form): oxygenated product of Example 6
erythrocytes; [2]
  AUC relative to AAPH control (%): 15%

## 3× TX-EDC (Reaction B): polyOR-Hb conjugated with Trolox by three additions of Trolox/EDC
erythrocytes; 12 mg/mL
  AUC, % of control: 3%

## Free Hb (A): free (control) hemoglobin; product of the control reaction corresponding to Hb-Trolox A, no TX-EDC added
erythrocytes; [4]
  AUC relative to AAPH control (%): 39%

## PolyOR-Hb: o-raffinose cross-linked / polymerized hemoglobin, no treatment with TX or EDC [reference compound]
erythrocytes; Table 9, CO form, 12 mg/mL
  AUC relative to AAPH control (%): 28%
[1]
  P50: 41 mm Hg
Conscious rat
  Pre-infusion HR: 407±17 bpm
  baseline MAP prior to infusion: 101±4 mm Hg
Conscious rat; conscious rat
  HR after infusion: 345±16 bpm
  MAP following infusion: 142±7 mm Hg

## PolyOR-Hb (Oxy form): oxygen-ligated polyOR-Hb, no treatment with TX or EDC
erythrocytes; [2]
  AUC relative to AAPH control (%): 39%

## PolyOR-Hb-TX (from Example 8): Trolox conjugated to polyOR-Hb under deoxy conditions
erythrocytes; Table 9, CO form, 12 mg/mL
  AUC relative to AAPH control (%): 3%
[1]
  P50: 40 mm Hg

## Cc1c(C)c2c(c(C)c1O)CCC(C)(C(=O)O)O2 (centres unmarked) [Free Trolox, 2,5,7,8-tetramethyl-2-carboxy-chroman-6-ol]
erythrocytes; Table 4, Trolox 0.50 mM, no hemoglobin
  AUC relative to AAPH control (%): 88%
erythrocytes; Table 9, Trolox alone 0.26 mM (0.5× its solubility limit)
  AUC relative to AAPH control (%): 87%
erythrocytes; Table 9, Trolox alone 0.52 mM (1× its solubility limit)
  AUC relative to AAPH control (%): 70%

## 1× Control: control product: polyOR-Hb reacted with EDC alone, no Trolox added, single addition
erythrocytes; [3]
  AUC relative to AAPH control (%): 83%

## PolyOR-Hb (CO form): CO-ligated polyOR-Hb, no treatment with TX or EDC
erythrocytes; [2]
  AUC relative to AAPH control (%): 47%

## Free Hb (B): free (control) hemoglobin; product of the control reaction corresponding to Hb-Trolox B, no TX-EDC added
erythrocytes; [4]
  AUC relative to AAPH control (%): 35%
